From patent publication US9855265B2, “Methods for treating cancer with TrkA receptor tyrosine kinase antagonists” (VM Oncology LLC, priority 2014, dated 2018)

What was measured:
PKG1a = PKG1a (Homo sapiens, UniProt Q13976); assay: radiometric kinase assay, other kinases: PKG1a; type: biochemical; conditions: duplicate
Description: (§1) Compound inhibition in a radiometric based mixed micelle assay: In a final reaction volume of 25 μL, TrkA (h) ([…]) is incubated with the kinase reaction buffer (20 mM HEPES (pH 7.5), 10 mM MgCl2, 1 mM EGTA, 0.02% Brij 35, 0.02 mg/ml BSA, 0.1 mM Na3VO4, 2 mM DTT, 1% DMSO), 0.2 mg/ml substrate PolyEY(4:1) and […], and [^33P-ATP](specific activity approx. 500 cpm/pmol, concentration as required). The reaction is initiated by the addition of the MgATP mix. After incubation for at least 40 minutes at room temperature, the reaction is stopped by the addition of 5 μL of a 3% phosphoric acid solution. 10 μL of the reaction is then spotted onto a P30 filtermat and washed three times for 5 minutes in 75 mM phosphoric acid and once in methanol prior to drying and scintillation counting. TrkA: Recombinant Human Cytoplasmic Domain (amino acids 441-796), Histidine-tagged, expressed in insect cells. Activated in vitro via auto-phosphorylation. Mw=42.8 kDa. Substrates for kinases: poly(EY) for TRKA; poly(EY)(4:1) with 2 mM MnCl2, average Mw=16 kDa Standard conditions (unless otherwise specified): 30 nM TRKA, 0.2 mg/ml poly(EY)+2 mM MnCl2, and 10 μM ([γ-^33P]) ATP. Using the similar assay condition with other kinases of recombinant human cytoplasmic domain, the activities of other kinases could be also measured.

CDK1/cyclinB = CDK1/cyclinB (Homo sapiens, UniProt P06493); assay: radiometric kinase assay, other kinases: CDK1/cyclinB; type: biochemical; conditions: duplicate
Chain of CDK1/cyclinB (P06493 whole entry): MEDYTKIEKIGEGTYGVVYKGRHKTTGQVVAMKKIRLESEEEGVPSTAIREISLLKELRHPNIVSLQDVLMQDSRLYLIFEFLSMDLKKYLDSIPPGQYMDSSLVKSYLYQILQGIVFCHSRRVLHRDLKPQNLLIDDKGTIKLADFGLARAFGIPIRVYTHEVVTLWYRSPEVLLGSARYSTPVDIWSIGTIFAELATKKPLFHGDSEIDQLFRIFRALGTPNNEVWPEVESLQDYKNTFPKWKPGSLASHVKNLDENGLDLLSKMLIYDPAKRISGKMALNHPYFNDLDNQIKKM
Chain of CDK1/cyclinB (P14635 whole entry partner): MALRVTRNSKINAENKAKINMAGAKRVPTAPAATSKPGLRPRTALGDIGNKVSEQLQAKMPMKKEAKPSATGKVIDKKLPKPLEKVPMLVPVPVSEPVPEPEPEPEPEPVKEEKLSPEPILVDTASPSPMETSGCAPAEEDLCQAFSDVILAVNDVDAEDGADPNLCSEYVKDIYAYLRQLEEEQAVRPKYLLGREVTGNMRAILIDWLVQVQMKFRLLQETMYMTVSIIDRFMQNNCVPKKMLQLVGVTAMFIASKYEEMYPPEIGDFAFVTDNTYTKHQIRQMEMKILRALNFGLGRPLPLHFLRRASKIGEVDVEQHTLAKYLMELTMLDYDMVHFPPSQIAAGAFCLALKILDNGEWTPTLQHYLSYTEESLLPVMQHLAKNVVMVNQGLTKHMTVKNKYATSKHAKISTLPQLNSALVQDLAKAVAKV
Description: as §1

TrkB = TrkB (Homo sapiens, UniProt Q16620); assay: radiometric kinase assay, other kinases: TrkB; type: biochemical; set-up: other kinases of recombinant human cytoplasmic domain; conditions: duplicate
Chain of TrkB (Q16620 455-822 limits assumed): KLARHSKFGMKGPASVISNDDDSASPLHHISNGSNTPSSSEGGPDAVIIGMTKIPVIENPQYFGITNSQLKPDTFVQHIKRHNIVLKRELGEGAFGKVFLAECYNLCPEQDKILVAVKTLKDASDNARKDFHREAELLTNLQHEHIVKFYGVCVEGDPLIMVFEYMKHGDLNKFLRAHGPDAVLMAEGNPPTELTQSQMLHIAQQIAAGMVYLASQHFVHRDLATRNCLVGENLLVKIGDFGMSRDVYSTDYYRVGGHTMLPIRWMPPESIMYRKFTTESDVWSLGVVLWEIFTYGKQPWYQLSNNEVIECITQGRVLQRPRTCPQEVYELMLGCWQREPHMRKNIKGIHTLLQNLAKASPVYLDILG
Description: as §1

ALK5/TGFB-R1 = biological target: T1, ALK5/TGFB-R1 (Homo sapiens, UniProt P36897); assay: radiometric kinase assay, other kinases: ALK5/TGFB-R1; type: biochemical; conditions: duplicate
T1 construct: other kinases of recombinant human cytoplasmic domain
T1 sequence (P36897 148-503 limits assumed): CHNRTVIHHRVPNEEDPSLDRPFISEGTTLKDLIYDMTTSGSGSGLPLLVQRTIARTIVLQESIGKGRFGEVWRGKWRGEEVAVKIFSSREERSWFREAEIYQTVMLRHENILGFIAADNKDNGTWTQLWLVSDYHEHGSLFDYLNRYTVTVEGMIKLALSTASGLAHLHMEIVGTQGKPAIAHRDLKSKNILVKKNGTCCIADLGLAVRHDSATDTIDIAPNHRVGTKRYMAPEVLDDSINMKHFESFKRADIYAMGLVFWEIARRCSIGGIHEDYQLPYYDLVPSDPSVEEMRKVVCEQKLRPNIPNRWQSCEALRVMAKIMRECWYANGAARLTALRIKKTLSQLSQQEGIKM
Description: as §1

TrkC = TrkC (Homo sapiens, UniProt Q16288); assay: live whole cell based functional assay, NT3 stimulated TrkC activation; set-up: expressed in transfected cells; conditions: triplicate
Chain of TrkC (Q16288 32-839): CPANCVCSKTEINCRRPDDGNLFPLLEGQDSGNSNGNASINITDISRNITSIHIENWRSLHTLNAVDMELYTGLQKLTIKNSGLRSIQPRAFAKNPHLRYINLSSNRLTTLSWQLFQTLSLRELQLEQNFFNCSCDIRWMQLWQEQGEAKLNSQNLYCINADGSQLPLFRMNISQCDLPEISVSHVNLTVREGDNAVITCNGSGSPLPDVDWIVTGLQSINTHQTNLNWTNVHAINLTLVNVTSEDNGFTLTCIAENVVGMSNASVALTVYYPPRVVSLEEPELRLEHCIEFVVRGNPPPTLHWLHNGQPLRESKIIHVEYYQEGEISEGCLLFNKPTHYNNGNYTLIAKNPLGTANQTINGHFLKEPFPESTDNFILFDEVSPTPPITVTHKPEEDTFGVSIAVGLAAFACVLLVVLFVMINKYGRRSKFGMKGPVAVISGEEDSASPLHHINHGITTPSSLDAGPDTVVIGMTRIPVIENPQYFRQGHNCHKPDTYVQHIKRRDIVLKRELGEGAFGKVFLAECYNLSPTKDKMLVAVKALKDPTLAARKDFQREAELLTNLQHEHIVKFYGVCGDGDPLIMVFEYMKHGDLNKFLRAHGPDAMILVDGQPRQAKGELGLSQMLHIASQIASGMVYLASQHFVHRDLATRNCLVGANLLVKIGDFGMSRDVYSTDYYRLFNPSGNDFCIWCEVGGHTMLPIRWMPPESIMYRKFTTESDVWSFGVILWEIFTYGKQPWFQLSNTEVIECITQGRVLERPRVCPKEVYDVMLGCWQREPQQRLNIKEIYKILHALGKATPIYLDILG

MEK1 = MEK1 (Homo sapiens, UniProt Q02750); assay: radiometric kinase assay, other kinases: MEK1; type: biochemical; conditions: duplicate
Chain of MEK1 (Q02750 whole entry): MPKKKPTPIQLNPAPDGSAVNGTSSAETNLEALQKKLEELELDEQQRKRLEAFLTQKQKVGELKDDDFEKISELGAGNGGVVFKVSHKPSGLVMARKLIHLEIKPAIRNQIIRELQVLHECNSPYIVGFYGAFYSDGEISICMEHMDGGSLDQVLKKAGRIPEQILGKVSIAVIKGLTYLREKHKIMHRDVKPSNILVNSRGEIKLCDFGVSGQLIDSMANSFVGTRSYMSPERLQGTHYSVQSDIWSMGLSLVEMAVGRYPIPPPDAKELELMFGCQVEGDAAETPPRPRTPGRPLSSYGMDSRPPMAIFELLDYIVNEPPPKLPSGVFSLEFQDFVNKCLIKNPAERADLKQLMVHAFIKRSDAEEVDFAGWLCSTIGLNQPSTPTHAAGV
Description: as §1

[1] = tested on: NCI-N87 human stomach cancer cells; assay: Cell Viability and Proliferation Assay, NCI-N87; type: cell-based; conditions: after 24 incubation
Description: (§2) Cell Viability and Proliferation Assays. To assess the chemosensitivity of tumor cells, cell viability is measured by CellTiter-Glo® Luminescent Cell Viability Assay (Promega; Wis., USA) per the manufacturer's instruction. Briefly, 5×10^3 to 7×10^5 cells/ml are cultured in sterile 96-well plates in the presence of increasing concentrations of the drugs (test article, 0 to 100 μM), or vehicle in RPMI medium. The plates are then incubated for 24 to 96 h, and then 100 μl of CellTiter-Glo reagent is added to lyse the cells. After a 10-min incubation at room temperature, the luminescence is recorded in a luminometer with an integration time of 1 s per well. The luminescence signals for the drug-treated cells are normalized by the luminescence signal obtained from vehicle-treated cells. As an alternative method to quantitate cell viability, the trypan blue exclusion dye method was used. Vehicle- or drug-treated cells were assayed by adding trypan blue solution (0.4% in phosphate-buffered saline [PBS]) to the culture medium. After 3 min, the number of dead cells that retained the dye is compared to the total number of cells to calculate cell viability. GraphPad Prism 5 software is used to calculate IC50 and plot effect-dose curve of drugs. Multiplate reader: EnVision 2104 (PerkinElmer). % of control variability=100*[(X(drug_treated)−L(baseline))/(H(vehicle_control)−L(baseline))]. […]

[2] = tested on: BxPC-3 human pancreatic cancer cells; assay: Cell Viability and Proliferation Assay, BxPC-3; type: cell-based; conditions: after 24 incubation
Description: as §2

Chain of PKG1a (Q13976 whole entry): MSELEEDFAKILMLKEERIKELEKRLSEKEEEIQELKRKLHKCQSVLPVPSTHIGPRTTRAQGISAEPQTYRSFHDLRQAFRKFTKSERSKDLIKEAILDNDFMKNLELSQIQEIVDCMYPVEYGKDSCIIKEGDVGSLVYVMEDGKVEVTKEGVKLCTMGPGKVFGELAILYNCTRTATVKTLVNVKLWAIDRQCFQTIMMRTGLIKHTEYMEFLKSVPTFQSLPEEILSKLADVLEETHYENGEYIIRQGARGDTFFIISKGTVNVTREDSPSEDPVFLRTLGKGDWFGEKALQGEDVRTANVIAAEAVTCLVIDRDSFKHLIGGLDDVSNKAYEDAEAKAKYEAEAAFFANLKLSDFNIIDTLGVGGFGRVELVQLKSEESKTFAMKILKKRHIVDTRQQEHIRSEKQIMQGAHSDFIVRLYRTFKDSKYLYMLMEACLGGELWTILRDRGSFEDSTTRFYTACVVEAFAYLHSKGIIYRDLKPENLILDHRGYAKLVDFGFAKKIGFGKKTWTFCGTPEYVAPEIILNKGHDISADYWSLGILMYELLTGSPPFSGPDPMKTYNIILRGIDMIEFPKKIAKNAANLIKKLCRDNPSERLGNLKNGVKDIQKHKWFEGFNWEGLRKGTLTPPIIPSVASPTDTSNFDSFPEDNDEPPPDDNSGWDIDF

## Nc1c(N2CCN(C3CCCCC3)CC2)cc(Nc2ccc(C(=O)O)cc2)c2c1C(=O)c1ccccc1C2=O [Compound 12, 4-{[4-amino-3-(4-cyclohexylpiperazin-1-yl)-9,10-dioxo-9,10-dihydroanthracen-1-yl]amino}benzoic acid]
PKG1a
  IC50: > 10 µM
CDK1/cyclinB
  IC50: > 10 µM
TrkB
  IC50: > 10 µM
ALK5/TGFB-R1
  IC50: > 10 µM
TrkC
  IC50: > 10 µM
MEK1
  IC50: > 10 µM
[1]
  IC50: ~7 µM
[2]
  IC50: 2 to 5 µM
